Laboratory results reported in ChEMBL document CHEMBL3421620, “A facile synthesis of novel miconazole analogues and the evaluation of their antifungal activity” (2015).
Converted amounts (≈) assume the structure as drawn. Each block holds one molecule with its values, some of them ahead of it.

Assays:
Format in all cases: functional
[1] = system: Candida albicans; test: Antifungal activity against Candida albicans Strain 10 by broth microdilution method
[2] = system: Rhizopus arrhizus; test: Antifungal activity against Rhizopus oryzae ATCC 10329 by broth microdilution method
[3] = system: Candida albicans; test: Antifungal activity against Candida albicans Strain 21 by broth microdilution method
[4] = system: Candida albicans; test: Antifungal activity against Candida albicans Strain 26 by broth microdilution method
[5] = system: Candida albicans; test: Antifungal activity against Candida albicans Strain 18 by broth microdilution method
[6] = system: Candida albicans; test: Antifungal activity against Candida albicans Strain 6 by broth microdilution method
[7] = system: Candida albicans; test: Antifungal activity against Candida albicans Strain 7 by broth microdilution method
[8] = system: Candida albicans; test: Antifungal activity against Candida albicans ATCC 10231 by broth microdilution method
[9] = system: Candida albicans; test: Antifungal activity against Candida albicans Strain 3 by broth microdilution method
[10] = system: Candida albicans; test: Antifungal activity against Candida albicans Strain 14 by broth microdilution method
[11] = system: Yarrowia lipolytica; test: Antifungal activity against Candida lipolytica by broth microdilution method
[12] = system: Candida parapsilosis; test: Antifungal activity against Candida parapsilosis by broth microdilution method; details: Lodderomyces parapsilosis
[13] = system: Candida albicans; test: Antifungal activity against Candida albicans Strain 1 by broth microdilution method
[14] = system: Candida albicans; test: Antifungal activity against Candida albicans Strain 15 by broth microdilution method
[15] = system: Candida albicans; test: Antifungal activity against Candida albicans Strain 9 by broth microdilution method
[16] = system: Candida albicans; test: Antifungal activity against Candida albicans Strain 25 by broth microdilution method
[17] = system: Candida albicans; test: Antifungal activity against Candida albicans Strain 12 by broth microdilution method
[18] = system: Candida albicans; test: Antifungal activity against Candida albicans Strain 17 by broth microdilution method
[19] = system: Candida albicans; test: Antifungal activity against Candida albicans Strain 22 by broth microdilution method
[20] = system: Candida albicans; test: Antifungal activity against Candida albicans Strain 24 by broth microdilution method
[21] = system: Candida albicans; test: Antifungal activity against Candida albicans Strain 28 by broth microdilution method
[22] = system: Nakaseomyces glabratus; test: Antifungal activity against Candida glabrata by broth microdilution method
[23] = system: Candida albicans; test: Antifungal activity against Candida albicans Strain 20 by broth microdilution method
[24] = system: Candida albicans; test: Antifungal activity against Candida albicans Strain 19 by broth microdilution method
[25] = system: Mucor hiemalis; test: Antifungal activity against Mucor hiemalis ATCC 8690 by broth microdilution method
[26] = system: Aspergillus fumigatus; test: Antifungal activity against Aspergillus fumigatus 16907 by broth microdilution method
[27] = system: Candida albicans; test: Antifungal activity against Candida albicans Strain 5 by broth microdilution method
[28] = system: Candida albicans; test: Antifungal activity against Candida albicans Strain 13 by broth microdilution method
[29] = system: Candida albicans; test: Antifungal activity against Candida albicans Strain 16 by broth microdilution method
[30] = system: Candida albicans; test: Antifungal activity against Candida albicans Strain 23 by broth microdilution method
[31] = system: Candida albicans; test: Antifungal activity against Candida albicans Strain 11 by broth microdilution method
[32] = system: Candida albicans; test: Antifungal activity against Candida albicans Strain 2 by broth microdilution method
[33] = Antifungal activity against Trichosporon cutaneum ATCC 28592 by broth microdilution method; details: Cutaneotrichosporon cutaneum
[34] = system: Candida albicans; test: Antifungal activity against Candida albicans Strain 8 by broth microdilution method
[35] = system: Candida albicans; test: Antifungal activity against Candida albicans Strain 4 by broth microdilution method
[36] = system: Kluyveromyces marxianus; test: Antifungal activity against Candida pseudotropicalis by broth microdilution method
[37] = system: Candida albicans; test: Antifungal activity against Candida albicans Strain 29 by broth microdilution method
[38] = system: Pichia kudriavzevii; test: Antifungal activity against Candida krusei by broth microdilution method
[39] = system: Candida tropicalis; test: Antifungal activity against Candida tropicalis ATCC 13803 by broth microdilution method
[40] = system: Cyberlindnera jadinii; test: Antifungal activity against Candida utilis ATCC 9226 by broth microdilution method; details: Williopsis jadinii
[41] = system: Candida albicans; test: Antifungal activity against Candida albicans Strain 27 by broth microdilution method

MIC [1]: 0.12 µg/mL (≈ 0.296 µM)
MIC [2]: > 16 µg/mL
MIC [3]: 0.12 µg/mL (≈ 0.296 µM)
MIC [4]: 0.12 µg/mL (≈ 0.296 µM)
MIC [5]: 0.06 µg/mL (≈ 0.148 µM)
MIC [6]: 0.06 µg/mL (≈ 0.148 µM)
MIC [7]: 0.12 µg/mL (≈ 0.296 µM)
MIC [8]: 0.06 µg/mL (≈ 0.148 µM)
MIC [9]: 0.12 µg/mL (≈ 0.296 µM)
MIC [10]: 0.06 µg/mL (≈ 0.148 µM)
MIC [11]: 0.12 µg/mL (≈ 0.296 µM)
MIC [12]: 0.12 µg/mL (≈ 0.296 µM)
MIC [13]: 0.12 µg/mL (≈ 0.296 µM)
MIC [14]: 0.12 µg/mL (≈ 0.296 µM)
MIC [15]: 0.25 µg/mL (≈ 0.617 µM)
MIC [16]: 0.12 µg/mL (≈ 0.296 µM)
MIC [17]: 0.12 µg/mL (≈ 0.296 µM)
MIC [18]: 0.12 µg/mL (≈ 0.296 µM)
MIC [19]: 0.06 µg/mL (≈ 0.148 µM)
MIC [20]: 0.12 µg/mL (≈ 0.296 µM)
MIC [21]: 0.12 µg/mL (≈ 0.296 µM)
MIC [22]: 0.25 µg/mL (≈ 0.617 µM)
MIC [23]: 0.12 µg/mL (≈ 0.296 µM)
MIC [24]: 0.12 µg/mL (≈ 0.296 µM)
MIC [25]: > 16 µg/mL
MIC [26]: 4 µg/mL (≈ 9.87 µM)
MIC [27]: 0.12 µg/mL (≈ 0.296 µM)
MIC [28]: 0.06 µg/mL (≈ 0.148 µM)
MIC [29]: 0.12 µg/mL (≈ 0.296 µM)
MIC [30]: 0.06 µg/mL (≈ 0.148 µM)
MIC [31]: 0.12 µg/mL (≈ 0.296 µM)
MIC [32]: 0.12 µg/mL (≈ 0.296 µM)
MIC [33]: 8 µg/mL (≈ 19.7 µM)
MIC [34]: 0.12 µg/mL (≈ 0.296 µM)
MIC [35]: 0.12 µg/mL (≈ 0.296 µM)
MIC [36]: 0.5 µg/mL (≈ 1.23 µM)
MIC [37]: 0.25 µg/mL (≈ 0.617 µM)
MIC [38]: 0.12 µg/mL (≈ 0.296 µM)
MIC [39]: 0.12 µg/mL (≈ 0.296 µM)
MIC [40]: 0.25 µg/mL (≈ 0.617 µM)
MIC [41]: 0.06 µg/mL (≈ 0.148 µM)
Compound: COC(=O)c1ccc(COC(Cn2ccnc2)c2ccc(Cl)cc2Cl)cc1 (configuration not stated)

Compound: CCC(C)n1ncn(-c2ccc(N3CCN(c4ccc(OCC5COC(Cn6cncn6)(c6ccc(Cl)cc6Cl)O5)cc4)CC3)cc2)c1=O (configuration not stated) [ITRACONAZOLE]
MIC [1]: 0.06 µg/mL (≈ 0.085 µM)
MIC [2]: > 16 µg/mL
MIC [3]: 0.12 µg/mL (≈ 0.17 µM)
MIC [4]: 0.12 µg/mL (≈ 0.17 µM)
MIC [5]: 0.03 µg/mL (≈ 0.0425 µM)
MIC [6]: 0.06 µg/mL (≈ 0.085 µM)
MIC [7]: 0.06 µg/mL (≈ 0.085 µM)
MIC [8]: 0.06 µg/mL (≈ 0.085 µM)
MIC [9]: 0.03 µg/mL (≈ 0.0425 µM)
MIC [10]: 0.06 µg/mL (≈ 0.085 µM)
MIC [11]: 0.12 µg/mL (≈ 0.17 µM)
MIC [12]: 0.25 µg/mL (≈ 0.354 µM)
MIC [13]: 0.06 µg/mL (≈ 0.085 µM)
MIC [14]: 0.06 µg/mL (≈ 0.085 µM)
MIC [15]: 0.12 µg/mL (≈ 0.17 µM)
MIC [16]: 0.12 µg/mL (≈ 0.17 µM)
MIC [17]: 0.12 µg/mL (≈ 0.17 µM)
MIC [18]: 0.12 µg/mL (≈ 0.17 µM)
MIC [19]: 0.03 µg/mL (≈ 0.0425 µM)
MIC [20]: 0.03 µg/mL (≈ 0.0425 µM)
MIC [21]: 0.03 µg/mL (≈ 0.0425 µM)
MIC [22]: 0.25 µg/mL (≈ 0.354 µM)
MIC [23]: 0.06 µg/mL (≈ 0.085 µM)
MIC [24]: 0.06 µg/mL (≈ 0.085 µM)
MIC [25]: > 16 µg/mL
MIC [26]: 1 µg/mL (≈ 1.42 µM)
MIC [27]: 0.06 µg/mL (≈ 0.085 µM)
MIC [28]: 0.06 µg/mL (≈ 0.085 µM)
MIC [29]: 0.06 µg/mL (≈ 0.085 µM)
MIC [30]: 0.06 µg/mL (≈ 0.085 µM)
MIC [31]: 0.06 µg/mL (≈ 0.085 µM)
MIC [32]: 0.06 µg/mL (≈ 0.085 µM)
MIC [33]: 8 µg/mL (≈ 11.3 µM)
MIC [34]: 0.03 µg/mL (≈ 0.0425 µM)
MIC [35]: 0.03 µg/mL (≈ 0.0425 µM)
MIC [36]: 0.25 µg/mL (≈ 0.354 µM)
MIC [37]: 0.12 µg/mL (≈ 0.17 µM)
MIC [38]: 1 µg/mL (≈ 1.42 µM)
MIC [39]: 0.06 µg/mL (≈ 0.085 µM)
MIC [40]: 0.5 µg/mL (≈ 0.709 µM)
MIC [41]: 0.06 µg/mL (≈ 0.085 µM)
